{"source": "patent US12234258B2", "about": "“Timosaponin compounds” (priority 2012, dated 2025)", "key": {"[1]": {"tested_on": "SH-SY5Y neuronal cells transfected with mRFP-LC3", "experiment": "Colocalization of exogenous labeled Aβ1-42 with mRFP-LC3 autophagic compartments", "format": "cell-based, Human", "settings": "5 μM, 16 hours"}, "[2]": {"tested_on": "SweAPP N2A cells", "experiment": "Cell viability of SweAPP N2A cells", "format": "cell-based", "settings": "at concentrations that significantly inhibited Aβ production", "experimental": "Cells were treated with timosaponins or other test compounds, and the conditioned medium was collected and subjected to measurement of secreted Aβ and N-terminal secreted APP (sAPPα and sAPPβ) by ELISA using specific antibodies pair targeting to respective fragments. Lysates from cells treated with timosaponins were subjected to immunoblot analysis using antibodies against c-terminal of APP to detect the full length APP, α-CTF and β-CTF. Cell viability and cytotoxicity are examined by MTT and LDH release assays, respectively. Cell culture: Neuro-2A cells expressing Swedish mutants of APP (N2A-APPswe) ENREF 12 was cultured in minimal essential medium with 2 mM glutamine, 2 mM pyruvate and 10% fetal bovine serum. Cells were seeded at 6-well plate at 1×10^6 cells/mL and grown for two days until confluence. The medium was replaced and the test compounds were added at indicated concentrations for 24 hr. Cell viability was measured by standard MTT assays."}, "[3]": {"tested_on": "NCI-H460, human non-small lung carcinoma cells", "experiment": "Growth of cancer cell lines: NCI-H460", "format": "cell-based", "settings": "mean ± S.D., n = 3; read-out: IC50 against growth of NCI-H460"}, "[4]": {"tested_on": "HeLa, human cervical carcinoma cells", "experiment": "Growth of cancer cell lines: HeLa", "format": "cell-based", "settings": "mean ± S.D., n = 3; read-out: IC50 against growth of HeLa"}, "[5]": {"tested_on": "APP processing (FL APP, β-CTF, secreted Aβ) in SweAPP N2A cells", "experiment": "Immunoblot analysis of APP processing in SweAPP N2A cells", "format": "cell-based", "settings": "treated SweAPP N2A cells", "experimental": "Cells obtained from Example 5 were washed with phosphate buffered saline and lysed with buffer containing Tris-Cl (50 mM, pH 7.4), NaCl ([…]), TRITON™ X-100 (1%) supplemented with protease inhibitors. Equal amount of proteins (30 μg) was resolved by 16.5% Tris-tricine gels and then transferred to nitrocellulose membrane with 0.2 µm pore size. For detection of secreted Aβ, 50 μL of the conditioned medium was mixed with sodium dodecyl sulfate (“SDS”) sample buffer and resolved accordingly. The membrane was blocked with Tris-buffered saline containing TWEEN™20 (0.1%) and bovine serum albumin (“BSA”) (3%) and then incubated with primary antibodies at 4° C. overnight, followed with appropriate secondary antibodies for 2 hours. The primary antibodies used included rabbit APP c-terminal antibody with 1:5000 dilution (obtained from Merck Bioscience) for detection of full length (“FL”) and CTFs, and mouse monoclonal 6E10 (obtained from Covance) for detection of secreted Aβ. The immunoreactivities were detected using enhanced chemiluminescence reagents (manufactured by GE Health care).\nImmunoblot analysis: Cells were washed with phosphate buffered saline and lysed with buffer containing 50 mM Tris-Cl, pH 7.4, 150 mM NaCl, 1% Triton X-100 supplemented with protease inhibitors. Equal amount of proteins (30 μg) was resolved by 16.5% Tris-tricine gels and then transferred to nitrocellulose membrane with 0.2 µm pore size. For detection of secreted Aβ, sAPPα and sAPPβ, cells were treated with the timosaponins for 8 hr in complete medium which were then replaced with medium containing 0.1% FBS. After further incubation of 16 hr, 50 μL of the conditioned medium was mixed with SDS sample buffer and resolved accordingly. The membrane was blocked with Tris-buffered saline containing 0.1% TWEEN® 20 and 3% BSA and then incubated with primary antibodies at 4° C. overnight, followed with appropriate secondary antibodies for 2 hr. […] The immunoreactivities were detected using enhanced chemiluminescence reagents (GE Health care). […]"}, "[6]": {"target": "T1, BACE activity in cell lysates (Mus musculus, UniProt P56818)", "T1 construct": "endogenous in cells; host or cells: N2A-APPswe (Neuro-2A cells expressing Swedish mutant APP)", "T1 sequence (P56818 46-501)": "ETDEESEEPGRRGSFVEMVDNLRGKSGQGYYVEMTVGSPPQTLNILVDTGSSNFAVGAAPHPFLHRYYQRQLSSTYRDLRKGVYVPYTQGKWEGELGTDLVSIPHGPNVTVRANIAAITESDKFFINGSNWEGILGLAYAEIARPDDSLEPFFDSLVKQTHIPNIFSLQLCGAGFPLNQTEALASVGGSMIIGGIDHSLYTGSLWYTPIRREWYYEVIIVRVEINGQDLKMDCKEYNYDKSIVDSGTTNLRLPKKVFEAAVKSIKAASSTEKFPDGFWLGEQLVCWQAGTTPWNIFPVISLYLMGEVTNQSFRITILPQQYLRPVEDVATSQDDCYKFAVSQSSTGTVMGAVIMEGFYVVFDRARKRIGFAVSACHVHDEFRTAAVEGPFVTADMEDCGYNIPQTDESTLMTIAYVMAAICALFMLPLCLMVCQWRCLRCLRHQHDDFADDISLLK", "experiment": "BACE (β-secretase) activity in cell lysates", "format": "biochemical", "settings": "cells treated with compound", "experimental": "(§1) β-Secretase assays: Confluent N2A-APPswe cells were harvested and homogenized with 50 mM MES, pH 5.5. Protein extracts (10 μg) were incubated with TAIII for 1 hr at room temperature. The β-secretase activities were assayed by adding 10 μM fluorogenic β-secretase substrate (Millipore) to the reaction mixtures and fluorescence signals (excitation, 380 nm; emission, 460 nm) were measured. β-Secretase assays were also performed using purified BACE1 (Millipore) at 100 ng in a buffer of 50 mM MES, pH 5.5."}, "[7]": {"target": "T2, purified BACE1 enzyme (Homo sapiens, UniProt P56817)", "T2 construct": "purchased Millipore", "T2 sequence (P56817 46-501, species assumed)": "as the sequence (P56818 46-501) above, with S6P, I162V, I165L, T180S, A182V, V340I, A393L, H443Q counted along it", "experiment": "Purified BACE1 enzyme activity", "format": "biochemical", "settings": "up to 100 μM", "experimental": "as §1"}, "[8]": {"tested_on": "Aβ42, Aβ40 and Aβ38 in N2A-APPswe cells", "experiment": "Aβ42, Aβ40 and Aβ38 profiles in conditioned medium by ELISA", "format": "cell-based", "settings": "FIG. 18, 18 hr", "experimental": "Aβ ELISA: Aβ concentrations in conditioned medium were assayed using ELISA kits for human Aβ40, human Aβ42 (ultrasensitive) (Invitrogen) and Aβ38 (MyBioSource).\nCells were treated with various concentrations of (TAIII/TAI/AA/TAV) and DMSO vehicle (C) for 18 hr. In part A of FIG. 18, the expression of full length (FL) and CTF (c99 and c83) in cell lysates and secreted APP (sAPPα and sAPPP) in the conditioned medium were examined by immunoblot using methods specified in Example 6. In part B of FIG. 18, the profiles of Aβ42, Aβ40 and Aβ38 in the conditioned medium were determined by ELISA using methods specified in Example 5."}, "[9]": {"tested_on": "Neuro-2A cells", "experiment": "Neurite outgrowth of N2A cells", "format": "cell-based", "procedure": "Immunofluorescence examination of neurite outgrowth: Neuro-2A cells were seeded at 1×10^5 cells per glass bottom dish. After treatment, cells were fixed with 4% paraformaldyde for 10 min, permeabilized with 0.1% Trition X-100, and then blocked with 1% BSA in PBS. The cells were incubated with monoclonal antibody raised against type III β-tubulin (Sigma) for 1 hr followed by Alexa488 conjugated secondary antibody. Neurite morphology was examined under fluorescence microscope."}, "[10]": {"tested_on": "HepG2, human hepatoma cells", "experiment": "Growth of cancer cell lines: HepG2", "format": "cell-based", "settings": "mean ± S.D., n = 3; read-out: IC50 against growth of HepG2"}, "[11]": {"tested_on": "SW480, human colon adenocarcinoma cells", "experiment": "Growth of cancer cell lines: SW480", "format": "cell-based", "settings": "mean ± S.D., n = 3; read-out: IC50 against growth of SW480"}, "[12]": {"tested_on": "Aβ1-42 production in SweAPP N2A cells (N2A-APPswe)", "experiment": "Aβ1-42 ELISA of conditioned medium of SweAPP N2A cells", "format": "cell-based", "procedure": "Neuro-2A cells expressing Swedish mutants of (“SweAPP N2A cells”) was cultured in minimal essential medium with glutamine (2 mM), pyruvate (2 mM) and fetal bovine serum (10%). Cells were seeded at 6-well plate at 1×10^6 cells/mL and grown overnight. The medium was replaced.\nConditioned medium was diluted with 2 part volume of ELISA diluents. Aβ1-42 concentrations were determined by using human Aβ1-42 ultrasensitive ELISA kit (manufactured by Invitrogen)."}}, "note": "Like-named read-outs stand apart in the source and are kept apart here.", "data": [{"smiles": "C[C@H]1CC[C@@]2(OC1)O[C@H]1C[C@H]3[C@@H]4CC[C@@H]5C[C@@H](O[C@@H]6O[C@H](CO)[C@H](O)[C@H](O)[C@H]6O[C@@H]6O[C@H](CO)[C@@H](O)[C@H](O)[C@H]6O)CC[C@]5(C)[C@H]4CC[C@]3(C)[C@H]1[C@@H]2C", "note": "[Timosaponin AIII]", "values": [{"measurement": "Colocalization of fluorophore labeled Aβ1-42 with mRFP-LC3 associated autophagic compartments", "setting": "[1]", "result": "significantly colocalized"}, {"measurement": "Cell viability", "setting": "[2]", "result": "did not affect the cell viability"}, {"measurement": "IC50", "setting": "[3]", "result": "6.9 ± 0.31", "unit": "µM"}, {"measurement": "IC50", "setting": "[4]", "result": "7.47 ± 2.39", "unit": "µM"}, {"measurement": "Aβ immunoreactivities in the conditioned medium", "setting": "[5]", "result": "concomitant decrease"}, {"measurement": "FL APP expression", "setting": "[5]", "result": "without significant changes"}, {"measurement": "Intracellular APP β-CTF expression", "setting": "[5]", "result": "significantly decreased"}, {"measurement": "BACE activity in cell lysates", "setting": "[6]", "result": "no change"}, {"measurement": "Activity of purified BACE1 enzyme", "setting": "[7]", "result": "not affected"}, {"measurement": "Aβ profile (Aβ42 vs Aβ40 and Aβ38)", "setting": "[8]", "result": "preferentially lower Aβ42 production"}, {"measurement": "Neurite outgrowth", "setting": "[9]; Example 8, 5 μM, 18 hours, N2A cells", "result": "significant extension and branching neuritis"}, {"measurement": "Neurite outgrowth", "setting": "[9]; FIG. 19, TAIII 5 μM, TAI 10 μM, SSG 25 μM, 18 hr, type III β-tubulin staining", "result": "significant extension and branching of neurites"}, {"measurement": "IC50", "setting": "[10]", "result": "7.28 ± 0.56", "unit": "µM"}, {"measurement": "IC50", "setting": "[11]", "result": "12.2 ± 0.28", "unit": "µM"}, {"measurement": "IC50", "setting": "[12]; Example 5, SweAPP N2A cells, 18 hours, ELISA, read-out: IC50, reduction of Aβ1-42 peptide secretion", "result": 2, "unit": "µM"}, {"measurement": "IC50", "setting": "[12]; Example 9, SweAPP N2A cells, Aβ1-42 ELISA, read-out: ICS50, inhibitor of Aβ production", "result": 2.5, "unit": "µM"}, {"measurement": "IC50", "setting": "[12]; Table 4, N2A-APPswe cells, mean ± S.D, n ≥ 3, read-out: IC50 in lowering Aβ42 production", "result": "2.3 ± 0.2", "unit": "µM"}]}]}
